In general, pIC50 refers to the IC50 on a negative log10 scale, so that one unit is a factor of ten. What is called pEC50 is −log10 of the EC50, conventionally taken in molar units.

32 molecules from ChEMBL document CHEMBL4837262, “Development and Profiling of Inverse Agonist Tools for the Neuroprotective Transcription Factor Nurr1” (J Med Chem, 2021) can be followed below.

In series [1] the test system is T98G. Nature of the series: Cytotoxicity against human T98G cells assessed as reduction in cell viability upto 100 uM after 24 hrs by WST-1 assay. In kind it is cell-based. On the technique in general: Tetrazolium assays rely on reduction of a dye to a coloured formazan, in cell work by metabolically active cells.
Series [2] deals with HEK-293T. The experiment in a line: Cytotoxicity against human HEK293T cells assessed as reduction in cell viability upto 100 uM after 24 hrs by WST-1 assay. In kind it is cell-based.
Series [3] has as its target T1, Nuclear receptor subfamily 4 group A member 2 (Homo sapiens, UniProt P43354). The experiment in a line: Inverse agonist activity at Gal4-fused human Nurr1 LBD expressed in HEK293T cells co-expressing firefly luciferase assessed as luciferase activity by hybrid reporter gene assay. The note with it: for pIC50: read-out: IC50; for IC50: hek293t. Format: cell-based. In general terms: In a reporter assay the amount or activity of a reporter protein is the signal.

Series [4] deals with T1, Nuclear receptor subfamily 4 group A member 2. The experiment in a line: Inverse agonist activity at Gal4-fused human Nurr1 LBD expressed in HEK293T cells co-expressing firefly luciferase assessed as luciferase activity in presence of AQ by hybrid reporter gene assay. Format: cell-based.
For series [5] the target is unchanged. Nature of the series: Inverse agonist activity at human Nurr1 LBD assessed as displacement of NCoR1 from Nurr1 after 2 hrs by HTRF assay.
For series [6] the target is unchanged. Nature of the series: Inverse agonist activity at human Nurr1 LBD assessed as displacement of NCoR2 from Nurr1 after 2 hrs by HTRF assay.
For series [7] the target is unchanged. Nature of the series: Inverse agonist activity at human Nurr1 LBD assessed as inhibition of NCoA6-Nurr1 interaction after 2 hrs by HTRF assay. Background: In TR-FRET formats the signal depends on donor and acceptor labels being close together.
Series [8] shares this target. Nature of the series: Inverse agonist activity at human Nurr1 LBD assessed as inhibition of SRC1-Nurr1 interaction after 2 hrs by HTRF assay.
Series [9] shares this target. The experiment in a line: Inverse agonist activity at human Nurr1 LBD assessed as inhibition of CBP1-Nurr1 interaction after 2 hrs by HTRF assay.
Series [10] has the same target. The experiment in a line: Inverse agonist activity at human Nurr1 LBD assessed as inhibition of Nurr1 homodimerization after 2 hrs by HTRF assay. Conditions: filed as inverse agonist.
For series [11] the target is unchanged. The experiment in a line: Inverse agonist activity at human Nurr1 LBD assessed as inhibition of heterodimerization of Nurr1 with RXRalpha after 2 hrs by HTRF assay.
The target is the same in series [12]. The experiment in a line: Inverse agonist activity at Gal4-fused human Nurr1 monomer response element NBRE expressed in HEK293T cells co-expressing firefly luciferase assessed as luciferase activity by hybrid reporter gene assay. In kind it is cell-based.
The subject of series [13] is T98G. The experiment in a line: Cytotoxicity against human T98G cells assessed as reduction in cell viability at >30 uM after 24 hrs by WST-1 assay. Format: cell-based.
The subject of series [14] is HEK-293T. The experiment in a line: Cytotoxicity against human HEK293T cells assessed as reduction in cell viability at >30 uM after 24 hrs by WST-1 assay. Format: cell-based.
The target of series [15] is T1, Nuclear receptor subfamily 4 group A member 2. The experiment in a line: Agonist activity at Gal4-fused human Nurr1 LBD expressed in HEK293T cells co-expressing firefly luciferase assessed as luciferase activity by hybrid reporter gene assay. Format: cell-based.
The target is the same in series [16]. Nature of the series: Agonist activity at Gal4-fused human Nurr1 LBD expressed in HEK293T cells co-expressing firefly luciferase assessed as luciferase activity in presence of 5-(Pyridin-3-yl)-1-methylindole-3-carboxylic Acid Methyl Ester by hybrid reporter gene assay. Format: cell-based.
For series [17] the target is unchanged. Nature of the series: Agonist activity at Gal4-fused human Nurr1 LBD expressed in HEK293T cells co-expressing firefly luciferase assessed as fold increase in luciferase activity by hybrid reporter gene assay relative to control. In kind it is cell-based. Conditions: filed as agonist.

pEC50, pIC50: −log10 of the molar value. The source made the active and inactive calls. The calls are words filed in the database; no cut-off is given here. Where only a bound is given, the exact number is not on record here.

T1 sequence (P43354 whole entry, the tested form may be a part): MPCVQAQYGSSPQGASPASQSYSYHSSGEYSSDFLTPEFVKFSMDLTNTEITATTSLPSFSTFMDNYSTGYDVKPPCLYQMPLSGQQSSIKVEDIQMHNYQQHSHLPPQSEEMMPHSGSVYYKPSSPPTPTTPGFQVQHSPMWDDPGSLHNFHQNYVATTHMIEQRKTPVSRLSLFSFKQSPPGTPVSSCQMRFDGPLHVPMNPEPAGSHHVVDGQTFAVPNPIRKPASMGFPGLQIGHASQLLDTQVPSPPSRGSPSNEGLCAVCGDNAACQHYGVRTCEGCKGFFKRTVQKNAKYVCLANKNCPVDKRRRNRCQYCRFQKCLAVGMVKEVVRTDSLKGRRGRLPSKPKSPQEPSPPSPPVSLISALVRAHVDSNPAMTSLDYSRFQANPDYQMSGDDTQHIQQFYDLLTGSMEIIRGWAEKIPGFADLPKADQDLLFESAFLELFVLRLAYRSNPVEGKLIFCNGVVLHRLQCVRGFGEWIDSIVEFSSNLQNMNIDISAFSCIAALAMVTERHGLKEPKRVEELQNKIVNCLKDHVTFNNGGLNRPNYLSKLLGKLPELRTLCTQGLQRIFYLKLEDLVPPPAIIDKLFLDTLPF

As to `COC(=O)c1cn(C)c2ccc(-c3ccccc3)cc12`, the Activity result in the series with T98G [1] and with HEK-293T [2] was “Non-Toxic” each time.
In the case of `COC(=O)c1c[nH]c2c(Cl)cccc12`, the pIC50 in [3] is 4.72.
For the molecule `CCNC(=O)c1cn(C)c2ccc(-c3ccccc3)cc12`, the IC50 result in series [3] is given as “Not Active”.
For `CC(=O)c1c[nH]c2ccccc12`, the IC50 result in [3] is listed as “Not Active”.
With `COC(=O)c1c[nH]c2cccc(C)c12`, in series [3], the IC50 entry is on record as “Not Active”.
On to `COC(=O)c1c[nH]c2ccc(C)cc12`, for which, in [3], the pIC50 was 4.70.
For `COC(=O)c1cn(C)c2ccc(-c3cccnc3)cc12`, the pIC50 in [3] was 5.42; in [4] it was 5.43; in series [5], 4.24; in series [6], 4.54; in series [12], 5.00. Besides, the outcome in [7], in [8], in [9] and in series [11] was inactive. In addition, the Activity result in series [10] was “Dose-Dependent Effect”; with T98G [13] it was “Toxic”; in the series on HEK-293T [14] it was “Toxic”.
Consider `COC(=O)c1c(Cl)[nH]c2ccccc12`, for which, in [3], the negative-log IC50 (pIC50) is 4.47.
`COC(=O)c1c[nH]c2ccc(Br)cc12`: the pIC50 in series [3] was 4.82.
On to `COC(=O)c1cn(Cc2ccccc2)c2ccccc12`, for which, in series [3], the IC50 entry is “Not Active”.
For `COC(=O)c1cn(C)c2c(Cl)cc(-c3cccnc3)cc12`, in series [3], the pIC50 is 4.96.
Consider `CCN(CC)Cc1cc(Nc2ccnc3cc(Cl)ccc23)ccc1O` [AMODIAQUINE], for which the pEC50 in [15] was 4.39; in series [16], 4.09.
Take `COC(=O)c1cn(C)c2ccccc12`: the pIC50 in series [3] was 4.68.
In the case of `CC(C)(C)OC(=O)c1c[nH]c2ccccc12`, the IC50 entry in series [3] was “Not Active”.
For `COC(=O)c1cn(-c2ccccc2)c2ccccc12`, the pEC50 in series [15] was 4.09. Moreover, in series [17], the fold change (FC) came to 1.9.
`CCC(=O)c1c[nH]c2ccccc12`: in [3], the IC50 entry is recorded as “Not Active”.
In the case of `COC(=O)c1c[nH]c2cc(C)ccc12`, the pIC50 in [3] was 4.24.
On to `CCOC(=O)c1c[nH]c2ccccc12`, for which the IC50 entry in [3] is on record as “Not Active”.
With `CCn1cc(C(=O)OC)c2ccccc21`, in series [3], the negative logarithm of the IC50 (pIC50) is 4.51.
On to `COC(=O)c1c[nH]c2c(C)cccc12`, for which the negative-log IC50 (pIC50) in series [3] is 4.46.
As for `COC(=O)c1c[nH]c2ccc(OC)cc12`, the negative logarithm of the IC50 (pIC50) in series [3] was 4.64.
Turning to `CNC(=O)c1cn(C)c2ccc(-c3ccccc3)cc12`, the pIC50 in [3] was 4.85.
`O=Cc1c[nH]c2ccccc12` [3-FORMYLINDOLE]: the IC50 entry in series [3] is listed as “Not Active”.
For `COC(=O)c1c[nH]c2ccccc12`, the pIC50 in series [3] is 4.32.
Regarding `COC(=O)c1c[nH]c2ccc(Cc3ccccc3)cc12`, the IC50 result in [3] is on record as “Not Active”.
On to `CN(C)C(=O)c1cn(C)c2ccc(-c3ccccc3)cc12`, for which the negative logarithm of the IC50 (pIC50) in series [3] was less than 4.52.
The same measure, in the same setting: next, `COC(=O)c1c[nH]c2cccc(Cl)c12`: 4.26; `COC(=O)c1c[nH]c2ccc(Cl)cc12`: 4.62.
Regarding `O=C(Oc1ccccc1)c1c[nH]c2ccccc12`, the pEC50 in series [15] is 4.96. The fold change (FC) in series [17] is 1.93.
On to `COC(=O)c1c(C)[nH]c2ccccc12`, for which the pIC50 in series [3] is 4.28.
Regarding `O=C(O)c1c[nH]c2ccccc12`, the IC50 entry in series [3] is “Not Active”.
For the molecule `COC(=O)c1c[nH]c2c(OC)cccc12`, the IC50 entry in [3] is “Not Active”.
